Experimental data as given in patent publication US10028949B2, “Parenteral formulations of lipophilic pharmaceutical agents and methods for preparing and using the same” (priority 2011, dated 2018).
Where two headings read alike, the source gives them in different places.

How the values were obtained:
[1] = cited from earlier work; for incidence of neurotoxicity, especially serious generalized seizure activity: after Bu-based conditioning therapy
[2] = Stability of Bu formulations by HPLC; assay type: physicochemical; conditions: for stability maintained: stock formulation diluted with D5W
Protocol: It was initially important to describe short-term stability of the Bu/acetone/PEG mixture. This was necessary to determine if the vacuum-extraction step could be utilized without undue chemical degradation of Bu. The Bu (5 mg/mL) in acetone/PEG400 (1:2, v/v) was incubated at room temperature and quantified by HPLC after 0, 1, 2, 4, 8 and 24 hours. Second, the inventors confirmed that Bu would be stable in the VE-acetone/PEG/Bu complex. Therefore, to determine long-term stability Bu was dissolved in acetone (10 mg/mL), then mixed with PEG 400 (ratio 1:2, v/v). The acetone was extracted from the mixture under vacuum at room temperature (RT). The VE-acetone/PEG400/Bu was stored either at room temperature or 37° C. for 2 months in sealed tubes. Finally, Bu (1 mg/mL) in the final use formulation of VE-acetone/PEG 400/D5W (0:40:60, v/v/v), was incubated at room temperature and analyzed by HPLC at 0, 1, 2, 4, 8 and 15 hours to determine short-term stability. Triplicate samples were quantitatively analyzed with HPLC at all time points after appropriate dilution of the samples in the stability studies.
Bu was dissolved at a concentration of about 10 mg/mL in acetone only or in VE-acetone/PEG (prototype stock solvent vehicle) and incubated at RT (22° C.) and at 37° C. The resulting Bu concentration was measured by HPLC in samples taken immediately after solubilization, then every few hours for 8 hours, and then at gradually increasing time intervals for up to 60 days.

[3] = for Solubility / Solubility (mg/mL): room temperature; for Solubility (mg/mL): listed as Bu

## CS(=O)(=O)OCCCCOS(C)(=O)=O [Busulfan, 1,4-butanediol dimethanesulfonate]
[1]; adults
  incidence of neurotoxicity, especially serious generalized seizure activity: ≤ 10%
[1]; children
  incidence of neurotoxicity, especially serious generalized seizure activity: approximately 7%
[1]; without overt seizure activity
  EEG abnormalities, patients: up to 60%
[2]; Bu/VE-acetone/PEG stock formulation, approximately 5 mg/mL, RT
  time stable in solution, stock formulation: ≥ 60 days
[2]; VE-acetone/PEG diluted with aqueous diluent to 1 mg/mL, RT
  time stable, final use-formulation: at least 15 hours
[2]; in DMSO
  stability in DMSO: rapidly started degrading
[2]; in acetone and DMA, RT
  time stably dissolved: at least 7 days
[2]; reconstituted with D5W, 0.5 to 2 mg/mL, RT
  time stable, final clinical use-formulation: at least 15 hours
[2]; up to 15 hours at 1 mg/ml
  stability maintained: ~100%
[2]; up to 25 hours at 0.5 mg/ml
  stability maintained: ~100%
[3]; Solvent: DMA
  Solubility: 49.2 mg/mL
  Solubility (mg/mL): more than 15 mg/mL
[3]; Solvent: DMSO
  Solubility: 77.9 mg/mL
  Solubility (mg/mL): more than 15 mg/mL
[3]; after mixing with PEG and extraction of the acetone
  concentration of Bu stably bound in PEG alone: 5000 to 10000 µg/mL
